Organism: Rattus norvegicus
Experiment: DrugMatrix - Regimen: Daily Repeat
Assay type: toxicity, organism-based, Sprague-Dawley
Set-up: regimen Daily Repeat, gender Male, age 6-8 weeks
Conditions: in vivo, po, route oral GAVAGE, vehicle 100 % WATER; for BASOPHIL / EOSINOPHIL / ERYTHROCYTE COUNT / HEMATOCRIT / HEMOGLOBIN / LEUKOCYTE COUNT / LYMPHOCYTE / MEAN CORPUSCULAR HEMOGLOBIN / MEAN CORPUSCULAR HEMOGLOBIN CONCENTRATION / MEAN CORPUSCULAR VOLUME / MONOCYTE / NEUTROPHIL / PLATELET COUNT: tissue Blood; for ALANINE AMINOTRANSFERASE / ALBUMIN / ALKALINE PHOSPHATASE / ASPARTATE AMINOTRANSFERASE / BLOOD UREA NITROGEN / CARBON DIOXIDE / CHLORIDE / CHOLESTEROL / CREATINE PHOSPHOKINASE / CREATININE / GLUCOSE / LACTATE DEHYDROGENASE / LIPASE / PHOSPHORUS / POTASSIUM / SODIUM / TOTAL BILIRUBIN / TOTAL PROTEIN / URIC ACID: tissue Plasma
[1] = 0 mg/kg, 96 h, dose level Control, time 4 day
[2] = 0 mg/kg, […], dose level Control, time 6 day
[3] = 0 mg/kg, […], dose level Control, time 14 day
[4] = 210 mg/kg, 96 h, dose level High, time 4 day
[5] = 210 mg/kg, […], dose level High, time 6 day
[6] = 210 mg/kg, […], dose level High, time 14 day

OCC1CO1 (configuration not stated) [GLYCIDOL]
BASOPHIL [1]: 0.47% | EOSINOPHIL [1]: 0.58% | ERYTHROCYTE COUNT [1]: 6.84 x10E6/uL | HEMATOCRIT [1]: 44.27% | HEMOGLOBIN [1]: 14.08 G/DL | LEUKOCYTE COUNT [1]: 13.39 x10E3/uL | LYMPHOCYTE [1]: 83.57% | MEAN CORPUSCULAR HEMOGLOBIN [1]: 20.57 pg | MEAN CORPUSCULAR HEMOGLOBIN CONCENTRATION [1]: 31.77 G/DL | MEAN CORPUSCULAR VOLUME [1]: 64.68 fL | MONOCYTE [1]: 1.92% | NEUTROPHIL [1]: 12.95% | PLATELET COUNT [1]: 1533.67 x10E3/uL | ALANINE AMINOTRANSFERASE [1]: 28.17 u/L | ALBUMIN [1]: 3.82 G/DL | ALKALINE PHOSPHATASE [1]: 354.33 u/L | ASPARTATE AMINOTRANSFERASE [1]: 73.83 u/L | BLOOD UREA NITROGEN [1]: 16 mg/dL | CARBON DIOXIDE [1]: 27.17 mmol/L | CHLORIDE [1]: 104.83 MEQ/L | CHOLESTEROL [1]: 83.33 mg/dL | CREATINE PHOSPHOKINASE [1]: 288 u/L | CREATININE [1]: 0.33 mg/dL | GLUCOSE [1]: 181.33 mg/dL | LACTATE DEHYDROGENASE [1]: 173.17 u/L | LIPASE [1]: 17.67 u/L | PHOSPHORUS [1]: 11.5 mg/dL | POTASSIUM [1]: 6.8 MEQ/L | SODIUM [1]: 147 MEQ/L | TOTAL BILIRUBIN [1]: 0.35 mg/dL | TOTAL PROTEIN [1]: 6.35 G/DL | URIC ACID [1]: 1.55 mg/dL | BASOPHIL [2]: 0.33% | EOSINOPHIL [2]: 0.85% | ERYTHROCYTE COUNT [2]: 6.98 x10E6/uL | HEMATOCRIT [2]: 38.58% | HEMOGLOBIN [2]: 14.25 G/DL | LEUKOCYTE COUNT [2]: 11.01 x10E3/uL | LYMPHOCYTE [2]: 85.07% | MEAN CORPUSCULAR HEMOGLOBIN [2]: 20.47 pg | MEAN CORPUSCULAR HEMOGLOBIN CONCENTRATION [2]: 31.45 G/DL | MEAN CORPUSCULAR VOLUME [2]: 64.9 fL | MONOCYTE [2]: 1.9% | NEUTROPHIL [2]: 11.42% | PLATELET COUNT [2]: 1289.67 x10E3/uL | BASOPHIL [3]: 0.52% | EOSINOPHIL [3]: 0.55% | ERYTHROCYTE COUNT [3]: 7.72 x10E6/uL | HEMATOCRIT [3]: 51.87% | HEMOGLOBIN [3]: 15.32 G/DL | LEUKOCYTE COUNT [3]: 16.2 x10E3/uL | LYMPHOCYTE [3]: 85.13% | MEAN CORPUSCULAR HEMOGLOBIN [3]: 19.85 pg | MEAN CORPUSCULAR HEMOGLOBIN CONCENTRATION [3]: 29.52 G/DL | MEAN CORPUSCULAR VOLUME [3]: 67.17 fL | MONOCYTE [3]: 1.7% | NEUTROPHIL [3]: 11.6% | PLATELET COUNT [3]: 1104.17 x10E3/uL | ALANINE AMINOTRANSFERASE [2]: 28.17 u/L | ALBUMIN [2]: 3.78 G/DL | ALKALINE PHOSPHATASE [2]: 385.33 u/L | ASPARTATE AMINOTRANSFERASE [2]: 78 u/L | BLOOD UREA NITROGEN [2]: 16.83 mg/dL | CARBON DIOXIDE [2]: 26.67 mmol/L | CHLORIDE [2]: 106.83 MEQ/L | CHOLESTEROL [2]: 82.67 mg/dL | CREATINE PHOSPHOKINASE [2]: 225.5 u/L | CREATININE [2]: 0.27 mg/dL | GLUCOSE [2]: 179.5 mg/dL | LACTATE DEHYDROGENASE [2]: 98.33 u/L | LIPASE [2]: 14.67 u/L | PHOSPHORUS [2]: 12.28 mg/dL | POTASSIUM [2]: 7.03 MEQ/L | SODIUM [2]: 150.33 MEQ/L | TOTAL BILIRUBIN [2]: 0.38 mg/dL | TOTAL PROTEIN [2]: 6.45 G/DL | URIC ACID [2]: 1.6 mg/dL | ALANINE AMINOTRANSFERASE [3]: 37 u/L | ALBUMIN [3]: 4.13 G/DL | ALKALINE PHOSPHATASE [3]: 342 u/L | ASPARTATE AMINOTRANSFERASE [3]: 71 u/L | BLOOD UREA NITROGEN [3]: 16.5 mg/dL | CARBON DIOXIDE [3]: 28.17 mmol/L | CHLORIDE [3]: 104 MEQ/L | CHOLESTEROL [3]: 70.67 mg/dL | CREATINE PHOSPHOKINASE [3]: 287.67 u/L | CREATININE [3]: 0.38 mg/dL | GLUCOSE [3]: 150.17 mg/dL | LACTATE DEHYDROGENASE [3]: 81.33 u/L | LIPASE [3]: 16 u/L | PHOSPHORUS [3]: 11.32 mg/dL | POTASSIUM [3]: 6.22 MEQ/L | SODIUM [3]: 147.33 MEQ/L | TOTAL BILIRUBIN [3]: 0.43 mg/dL | TOTAL PROTEIN [3]: 6.55 G/DL | URIC ACID [3]: 1.38 mg/dL | BASOPHIL [4]: 0.37% | EOSINOPHIL [4]: 0.43% | ERYTHROCYTE COUNT [4]: 6.84 x10E6/uL | HEMATOCRIT [4]: 44.53% | HEMOGLOBIN [4]: 13.97 G/DL | LEUKOCYTE COUNT [4]: 11.04 x10E3/uL | LYMPHOCYTE [4]: 82.73% | MEAN CORPUSCULAR HEMOGLOBIN [4]: 20.43 pg | MEAN CORPUSCULAR HEMOGLOBIN CONCENTRATION [4]: 31.4 G/DL | MEAN CORPUSCULAR VOLUME [4]: 65.2 fL | MONOCYTE [4]: 2.77% | NEUTROPHIL [4]: 12.93% | PLATELET COUNT [4]: 1402.67 x10E3/uL | ALANINE AMINOTRANSFERASE [4]: 41.67 u/L | ALBUMIN [4]: 3.9 G/DL | ALKALINE PHOSPHATASE [4]: 368 u/L | ASPARTATE AMINOTRANSFERASE [4]: 81.33 u/L | BLOOD UREA NITROGEN [4]: 15.33 mg/dL | CARBON DIOXIDE [4]: 26 mmol/L | CHLORIDE [4]: 105.33 MEQ/L | CHOLESTEROL [4]: 107.33 mg/dL | CREATINE PHOSPHOKINASE [4]: 232 u/L | CREATININE [4]: 0.4 mg/dL | GLUCOSE [4]: 184 mg/dL | LACTATE DEHYDROGENASE [4]: 181 u/L | LIPASE [4]: 21 u/L | PHOSPHORUS [4]: 10.67 mg/dL | POTASSIUM [4]: 6.63 MEQ/L | SODIUM [4]: 147.33 MEQ/L | TOTAL BILIRUBIN [4]: 0.37 mg/dL | TOTAL PROTEIN [4]: 6.6 G/DL | URIC ACID [4]: 1.53 mg/dL | BASOPHIL [5]: 0.33% | EOSINOPHIL [5]: 0.33% | ERYTHROCYTE COUNT [5]: 6.72 x10E6/uL | HEMATOCRIT [5]: 43.03% | HEMOGLOBIN [5]: 13.67 G/DL | LEUKOCYTE COUNT [5]: 11.41 x10E3/uL | LYMPHOCYTE [5]: 88.93% | MEAN CORPUSCULAR HEMOGLOBIN [5]: 20.37 pg | MEAN CORPUSCULAR HEMOGLOBIN CONCENTRATION [5]: 31.77 G/DL | MEAN CORPUSCULAR VOLUME [5]: 64.1 fL | MONOCYTE [5]: 2.73% | NEUTROPHIL [5]: 6.93% | PLATELET COUNT [5]: 1416.33 x10E3/uL | BASOPHIL [6]: 0.43% | EOSINOPHIL [6]: 1.53% | ERYTHROCYTE COUNT [6]: 6.88 x10E6/uL | HEMATOCRIT [6]: 45.62% | HEMOGLOBIN [6]: 13.7 G/DL | LEUKOCYTE COUNT [6]: 12.42 x10E3/uL | LYMPHOCYTE [6]: 88.5% | MEAN CORPUSCULAR HEMOGLOBIN [6]: 19.93 pg | MEAN CORPUSCULAR HEMOGLOBIN CONCENTRATION [6]: 30.02 G/DL | MEAN CORPUSCULAR VOLUME [6]: 66.33 fL | MONOCYTE [6]: 1.9% | NEUTROPHIL [6]: 6.83% | PLATELET COUNT [6]: 1312.75 x10E3/uL | ALANINE AMINOTRANSFERASE [5]: 34 u/L | ALBUMIN [5]: 3.93 G/DL | ALKALINE PHOSPHATASE [5]: 398 u/L | ASPARTATE AMINOTRANSFERASE [5]: 76.33 u/L | BLOOD UREA NITROGEN [5]: 15.67 mg/dL | CARBON DIOXIDE [5]: 24.33 mmol/L | CHLORIDE [5]: 110 MEQ/L | CHOLESTEROL [5]: 95.33 mg/dL | CREATINE PHOSPHOKINASE [5]: 145 u/L | CREATININE [5]: 0.3 mg/dL | GLUCOSE [5]: 175.33 mg/dL | LACTATE DEHYDROGENASE [5]: 95.33 u/L | LIPASE [5]: 6 u/L | PHOSPHORUS [5]: 11.3 mg/dL | POTASSIUM [5]: 6.9 MEQ/L | SODIUM [5]: 151.67 MEQ/L | TOTAL BILIRUBIN [5]: 0.37 mg/dL | TOTAL PROTEIN [5]: 6.67 G/DL | URIC ACID [5]: 1.63 mg/dL | ALANINE AMINOTRANSFERASE [6]: 34 u/L | ALBUMIN [6]: 4.45 G/DL | ALKALINE PHOSPHATASE [6]: 332.5 u/L | ASPARTATE AMINOTRANSFERASE [6]: 55.5 u/L | BLOOD UREA NITROGEN [6]: 17 mg/dL | CARBON DIOXIDE [6]: 27 mmol/L | CHLORIDE [6]: 105 MEQ/L | CHOLESTEROL [6]: 100.75 mg/dL | CREATINE PHOSPHOKINASE [6]: 116.5 u/L | CREATININE [6]: 0.32 mg/dL | GLUCOSE [6]: 136.5 mg/dL | LACTATE DEHYDROGENASE [6]: 63.5 u/L | LIPASE [6]: 9.75 u/L | PHOSPHORUS [6]: 12.12 mg/dL | POTASSIUM [6]: 6.47 MEQ/L | SODIUM [6]: 148.25 MEQ/L | TOTAL BILIRUBIN [6]: 0.35 mg/dL | TOTAL PROTEIN [6]: 7.2 G/DL | URIC ACID [6]: 1.62 mg/dL

— ChEMBL document CHEMBL3885881, “DrugMatrix”
